# Entries after “also recorded” stand apart in the source; their conditions may differ.
# Tests used:
# [1] = test system: viral RNA polymerase [病毒RNA聚合酶]; details: adenosine analogue; cited from earlier work
# [2] = test system: Zika virus [寨卡病毒]; details: cited from earlier work
# [3] = molecular target: NS5 methyltransferase [NS5甲基转移酶]; details: NS5 methyltransferase inhibitors; cited from earlier work
# [4] = test system: ZIKV SZ-WIV01; experiment: Plaque assay, ZIKV SZ-WIV01 in Vero cells; type: cell-based, Zika virus; details: for EC50: Zika virus, Vero, 96 h
# [5] = test system: ZIKV MR766; experiment: Plaque assay, ZIKV MR766 in Vero cells; type: cell-based; details: Zika virus, 96 h
# [6] = test system: AXL; experiment: Flow cytometry of AXL expression on Vero cell surface; type: cell-based, African green monkey; details: Vero cells, 50 μM, 37°C 1 h, then ZIKV SZ-WIV01 MOI=1, 1 h
# [7] = test system: ZIKV NS5; experiment: Western blot of NS5 expression in HEK-293T cells; type: cell-based, Zika virus; details: 24 h
# [8] = test system: Gluc luciferase [荧光素酶Gluc]; experiment: Gluc activity in HEK-293T cells expressing only Gluc (counter-test); type: cell-based
# [9] = test system: ZIKV; experiment: qRT-PCR of ZIKV replication in Huh-7 cells; type: cell-based, Zika virus; details: human Huh-7 cells, 0.4-50 μM
# [10] = test system: ZIKV SZ-WIV01; experiment: qRT-PCR of ZIKV RNA in supernatant of infected Vero cells; type: cell-based, Zika virus; details: ZIKV SZ-WIV01 500 PFU, 3.125-25 μM, 48 h
# [11] = test system: ZIKV SZ-WIV01; experiment: Immunofluorescence of ZIKV E protein positive Vero cells; type: cell-based, Zika virus; details: ZIKV SZ-WIV01 MOI=1, 50 μM, 48 h, vs DMSO
# [12] = test system: ZIKV MR766 E protein [ZIKV E蛋白]; experiment: Western blot of ZIKV E protein expression; type: cell-based, Zika virus; details: 48 h
# [13] = test system: ZIKV SZ-WIV01; experiment: Adsorption (binding) assay, qRT-PCR of ZIKV on Vero cell surface; type: cell-based, Zika virus; details: ZIKV SZ-WIV01 MOI=1, 50 μM, 4°C, 1 h, vs DMSO
# [14] = test system: ZIKV; experiment: qRT-PCR of ZIKV replication in A549 cells; type: cell-based, Zika virus; details: human A549 cells, 0.4-50 μM
# [15] = test system: Vero cells [Vero细胞]; experiment: MTT cytotoxicity in Vero cells; type: cell-based, African green monkey; details: Vero CC50 relative to anti-ZIKV EC50; strain not stated
# [16] = MTT cytotoxicity in Vero cells; type: cell-based, African green monkey; details: monkey
# [17] = test system: ZIKV SZ-WIV01; experiment: Time-of-addition assay, qRT-PCR, Vero cells; type: cell-based, Zika virus; details: ZIKV SZ-WIV01 MOI=1, 50 μM
# [18] = molecular target: T1, RNA-dependent RNA polymerase (RdRp) of ZIKV NS5 [ZIKV的RNA依赖的RNA聚合酶(RdRp)] (Zika virus, UniProt Q32ZE1); experiment: ZIKV NS5 RdRp activity, Gluc reporter in NS5-expressing HEK-293T cells; type: cell-based; details: 24 h
# T1 construct: 1μg ZIKV NS5载体共转染到HEK-293T细胞中; expressed in transfected cells; host or cells: HEK-293T
# T1 sequence (Q32ZE1 2517-3419): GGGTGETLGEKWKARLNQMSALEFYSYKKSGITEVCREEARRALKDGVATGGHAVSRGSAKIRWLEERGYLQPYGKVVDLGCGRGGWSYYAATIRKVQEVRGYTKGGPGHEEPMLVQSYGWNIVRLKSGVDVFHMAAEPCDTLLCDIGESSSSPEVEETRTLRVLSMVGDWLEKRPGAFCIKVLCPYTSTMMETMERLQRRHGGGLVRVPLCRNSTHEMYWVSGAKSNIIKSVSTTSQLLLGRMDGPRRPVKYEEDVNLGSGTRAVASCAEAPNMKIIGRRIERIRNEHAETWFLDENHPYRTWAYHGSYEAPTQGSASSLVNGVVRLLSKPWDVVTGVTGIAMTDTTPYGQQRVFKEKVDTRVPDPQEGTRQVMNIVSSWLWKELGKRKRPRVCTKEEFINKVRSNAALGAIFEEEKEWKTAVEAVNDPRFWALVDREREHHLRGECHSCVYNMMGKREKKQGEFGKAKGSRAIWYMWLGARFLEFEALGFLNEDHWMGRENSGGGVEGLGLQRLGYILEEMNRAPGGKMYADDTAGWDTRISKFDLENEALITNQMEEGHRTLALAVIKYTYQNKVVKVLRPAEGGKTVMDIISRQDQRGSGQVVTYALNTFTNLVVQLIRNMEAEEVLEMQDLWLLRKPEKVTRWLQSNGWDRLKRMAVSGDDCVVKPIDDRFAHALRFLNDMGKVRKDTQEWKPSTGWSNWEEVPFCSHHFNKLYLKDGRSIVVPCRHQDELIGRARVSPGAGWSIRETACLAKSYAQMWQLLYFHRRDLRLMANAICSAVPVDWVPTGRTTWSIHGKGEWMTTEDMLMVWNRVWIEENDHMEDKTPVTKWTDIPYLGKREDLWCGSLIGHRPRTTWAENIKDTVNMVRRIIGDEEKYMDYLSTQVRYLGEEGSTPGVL
# [19] = test system: ZIKV; experiment: Internalization of ZIKV into host cells; type: cell-based, Zika virus
# [20] = test system: Zika virus [寨卡病毒]; details: cited from earlier work; remark: listed apart in the source
smiles,measurement,setting,value
Nc1ncnc2c([C@@H]3N[C@H](CO)[C@@H](O)[C@H]3O)c[nH]c12 [BCX4430],inhibition of viral RNA polymerase function,[1],能抑制病毒RNA聚合酶的功能
Cc1c(-c2ccc(-c3ccccc3F)cc2)nc2ccc(F)cc2c1C(=O)O [Brequinar],anti-Zika virus activity,[2],具有抗寨卡病毒活性
"Nc1ncnc2c1ncn2[C@@H]1O[C@H](CSCC[C@H](N)C(=O)O)[C@@H](O)[C@H]1O [S-腺苷基-同型半胱氨酸, S-adenosyl-L-homocysteine]",IC50,[3],430 nM
"NC(=O)c1ncn([C@@H]2O[C@H](CO)[C@@H](O)[C@H]2O)n1 [利巴韦林, reference compound]",EC50,[4],47.5 ± 4.73 µM
same,anti-Zika virus activity,[2],具有抗寨卡病毒活性
same,EC50,[5],58.8 ± 1.86 µM
"COc1cc(O)c(C(CC(C)C)c2c(O)cc(OC)c(C(=O)C(C)C)c2O)c(O)c1C(=O)C(C)C [大叶桉酮G, Eucalyprobusone G]",AXL expression,[6],不影响AXL的表达
same,effect on NS5 expression,[7],不影响NS5的表达; also recorded: 对NS5的表达没有影响
same,effect on Gluc activity in cells expressing only Gluc,[8],对荧光素酶的活性没有影响; also recorded: 对Gluc的活性没有影响
same,inhibition of ZIKV replication,[9],以剂量依赖型方式抑制两种人源细胞中ZIKV的复制
same,inhibition of ZIKV RNA production,[10],以剂量依赖性的方式抑制ZIKV RNA的产生
same,inhibition of ZIKV-induced plaque formation,"[4]; Vero cells, 3.125-25 μM, vs DMSO",以剂量依赖方式抑制ZIKV感染诱导的噬斑形成
same,EC50,[4],10.1 ± 3.84 µM
same,anti-Zika virus activity compared with positive control ribavirin,"[4]; plaque assay, ZIKV SZ-WIV01 and ZIKV MR766",优于阳性对照药利巴韦林; also recorded: 显著高于阳性对照药利巴韦林
same,ZIKV E protein positive cells (immunofluorescence),[11],ZIKV E蛋白阳性细胞显著减少
same,expression of ZIKV E protein (Western blot),"[12]; ZIKV MR766, 2 μM or higher",几乎完全抑制了E蛋白的表达
same,"expression of ZIKV E protein (Western blot), concentration dependence","[12]; ZIKV MR766, 0.08-50 μM","随着大叶桉酮G浓度的增加,ZIKV E蛋白的表达逐渐被抑制"
same,ZIKV adsorption (binding) to host cells,[13],抑制了ZIKV的吸附; also recorded: 抑制ZIKV与宿主细胞的结合
same,inhibition of ZIKV replication,[14],以剂量依赖型方式抑制两种人源细胞中ZIKV的复制
same,therapeutic index,[15],> 49.5
same,selectivity ratio,"[16]; vero cells, Vero CC50 relative to anti-ZIKV EC50, strain not stated, read-out: therapeutic index",> 49.5
same,CC50 at 96 h,"[16]; MTT, Vero cells, 4 days",> 500 µM
same,stage of viral life cycle acted on,[17]; added 0-12 h post infection,主要抑制ZIKV RNA的合成
same,inhibition of ZIKV replication when added 6 h post infection,[17]; supernatant at 24 h,显著抑制了ZIKV的复制
same,inhibition of NS5-induced increase in Gluc activity,[18]; 10 μmol/L,几乎完全抑制
same,inhibition of Gluc activity in NS5-expressing cells (RdRp activity),[18]; 1.25-10 μM,以剂量依赖性的方式抑制了表达NS5的细胞中的荧光素酶Gluc的活性; also recorded: 可以抑制NS5中RdRp结构域的活性; also recorded: 呈剂量依赖型方式降低Gluc的活性
same,EC50,[5],0.43 ± 0.08 µM
same,internalization of ZIKV into host cells,[19],抑制ZIKV与宿主细胞的结合和内化
Cc1ccc(C(=O)Nc2ccc(S(=O)(=O)O)c3cc(S(=O)(=O)O)cc(S(=O)(=O)O)c23)cc1NC(=O)c1cccc(NC(=O)Nc2cccc(C(=O)Nc3cc(C(=O)Nc4ccc(S(=O)(=O)O)c5cc(S(=O)(=O)O)cc(S(=O)(=O)O)c45)ccc3C)c2)c1 [苏拉明],effect on Zika virus binding and attachment to host cells,[20],可以影响寨卡病毒的结合以及与宿主细胞的附着
"Nc1ncnc2c1ncn2[C@@H]1O[C@H](C[C@@H](N)CC[C@H](N)C(=O)O)[C@@H](O)[C@H]1O [西奈芬净, Sinefungin]",IC50,[3],1180 nM
COc1c(C)c2c(c(O)c1C/C=C(\C)CCC(=O)O)C(=O)OC2 [麦考酚酸],anti-Zika virus activity,[2],具有抗寨卡病毒活性

# From patent CN112159318A, “一种具有抗病毒活性的大叶桉酮及其制备方法和用途” (Kunming Institute of Botany of CAS, priority 2020, dated 2021)
